From paper PMC9481570, “A small molecule antagonist of SMN disrupts the interaction between SMN and RNAP II” (Nature Communications, 2022) come the findings set out here.

Several values for one entry are separate records, joined by “and”; a condition that tells them apart may be missing. Equal values may be shown once.

Holding throughout (experiment): Affinity-purification and mass spectrometry (AP-MS) chemical proteomics, all proteins;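 on Difference: 200 µM free competitor with 20 µM biotin probe overnight in lysate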
Common to all, as to type: binding

For assay [1], the target named is T1, proteins displaced from immobilized biotin-Cmpd 1 pulldowns (U2OS cell lysate) (Homo sapiens, UniProt O60832).
T1 construct: endogenous in cells; host or cells: U2OS
The settings on record: GN=DKC1 (O60832). As for the experimental part:
(§1) The samples for AP-MS were prepared following pulldown procedure as previously described with minor modifications. Briefly, U2OS cells were lysed in RIPA buffer and the cell lysate was equally divided into two groups: (1) DMSO group (control group): the cell lysate was incubated with 20 μM biotin-labeled compound 1; (2) Cpmd 1 group (sample group): the cell lysate was incubated with 20 μM biotin-labeled compound 1 and 200 μM free compound 1. Each group contains three biological replicates. They were incubated overnight at 4 °C, then 30 μL streptavidin beads (Thermo Fisher, 20353) was added and incubated at 4 °C for 1 h. The beads were then washed with RIPA buffer for 3 times, 10 min/time.
(§2) Beads were rinsed twice with 50 mM TEAB, pH 7.55, before eluting proteins with 25 μL of 5% SDS, 50 mM TEAB, pH 7.55. The sample was then centrifuged at 17,000 × g for 10 min to remove any debris. Proteins were reduced with 20 mM TCEP (Thermo Fisher, 77720) and incubated at 65 °C for 30 min. The sample was cooled to room temperature and 1 μL of 0.5 M iodoacetamide acid was added and allowed to react for 20 min in dark. Phosphoric acid (12%, 2.75 μL) was added to the protein solution, followed by adding 165 μL of binding buffer (90% methanol, 100 mM TEAB, pH 7.1). The resulting solution was added to S-Trap spin column (protifi.com) and passed through the column using a bench top centrifuge (30 s spin at 4000 × g). The spin column was washed with 400 μL of binding buffer and centrifuged. This step was repeated two more times. Then trypsin was added to the protein mixture at a mass ratio of 1:25 in 50 mM TEAB, pH 8.0, and the sample was incubated at 37 °C for 4 h. Peptides were eluted with 80 μL of 50 mM TEAB, followed by 80 μL of 0.2% formic acid, and finally 80 μL of 50% acetonitrile, 0.2% formic acid. The combined peptide solution was then dried in a speed vac and resuspended in 2% acetonitrile, 0.1% formic acid, 97.9% water and placed in an autosampler vial.
(§3) Samples were analyzed by nanoLC-MS/MS (nanoRSLC, Thermo Fisher) using an Aurora series (Ion Opticks) reversed phase HPLC column (25 cm length × 75 µm inner diameter) and directly injected to an Orbitrap Eclipse (Thermo Fisher) using a 120 min gradient (mobile phase A = 0.1% formic acid, mobile phase B = 99.9% acetonitrile with 0.1% formic acid; hold 2% B for 5 min, 2–6% B in 0.1 min, 6–25% in 100 min, 25–50% in 15 min) at a flow rate of 350 nL/min. Eluted peptide ions were analyzed using a data-dependent acquisition (DDA) method with resolution settings of 120,000 and 15,000 (at m/z 200) for MS1 and MS2 scans, respectively. DDA-selected peptides were fragmented using stepped high energy collisional dissociation (27, 32, and 37%).
(§4) The data of AP-MS were analyzed as a previously described method with minor modifications. Briefly, the raw MS files were searched with MaxQuant software (version 1.6.1.1, www.maxquant.org)[56] against the UniProt human protein database (www.uniprot.org) concatenated with common contaminants and the decoy database. The mass tolerance for precursor ions was set to 20 ppm and 4.5 ppm for the first and main search, respectively. The cysteine carbamidomethylation was set as fixed modification and methionine oxidation and N-terminal acetylation as variable modifications. Enzyme specificity was set to trypsin and a maximum missed cleavage was set as 2. The 1% false discovery rate (FDR) at both peptide and protein levels was applied for the analysis. Relative protein quantification was based on the label-free quantification incorporated in the MaxQuant software. The iBAQ intensity of proteins was obtained for the control and experimental samples. The missing iBAQ intensity was replaced by a random number, which was calculated from a normal distribution with a width of 0.3 and a downshift of 1.8 defined by Perseus software (version 1.6.5.0). The P-value was calculated by performing two-sample Student’s t-test. […]

The target in assay [2] is T2, proteins displaced from immobilized biotin-Cmpd 1 pulldowns (U2OS cell lysate) (Homo sapiens, UniProt P22735).
T2 construct: endogenous in cells; host or cells: U2OS
The note with it: GN=TGM1 (P22735). As for the experimental part:
as §1, §2, §3, §4

Assay [3] concerns the target T3, proteins displaced from immobilized biotin-Cmpd 1 pulldowns (U2OS cell lysate) (Homo sapiens, UniProt P06396).
T3 construct: endogenous in cells; host or cells: U2OS
The settings on record: GN=GSN (P06396). As for the experimental part:
as §1, §2, §3, §4

The target in assay [4] is T4, proteins displaced from immobilized biotin-Cmpd 1 pulldowns (U2OS cell lysate) (Homo sapiens, UniProt P05089).
T4 construct: endogenous in cells; host or cells: U2OS
The settings on record: GN=ARG1 (P05089). As for the experimental part: as §1, §2, §3, §4

The target of assay [5] is T5, proteins displaced from immobilized biotin-Cmpd 1 pulldowns (U2OS cell lysate) (Homo sapiens, UniProt P20700).
T5 construct: endogenous in cells; host or cells: U2OS
The settings on record: GN=LMNB1 (P20700). As for the experimental part: as §1, §2, §3, §4

In assay [6] the target is T6, proteins displaced from immobilized biotin-Cmpd 1 pulldowns (U2OS cell lysate) (Homo sapiens, UniProt Q6UB35).
T6 construct: endogenous in cells; host or cells: U2OS
The note with it: GN=MTHFD1L (Q6UB35). As for the experimental part:
as §1, §2, §3, §4

In assay [7] the target is T7, proteins displaced from immobilized biotin-Cmpd 1 pulldowns (U2OS cell lysate) (Homo sapiens, UniProt P46783).
T7 construct: endogenous in cells; host or cells: U2OS
The note with it: GN=RPS10 (P46783). As for the experimental part: as §1, §2, §3, §4

Assay [8] deals with T8, proteins displaced from immobilized biotin-Cmpd 1 pulldowns (U2OS cell lysate) (Homo sapiens, UniProt P20042).
T8 construct: endogenous in cells; host or cells: U2OS
The settings on record: GN=EIF2S2 (P20042). As for the experimental part:
as §1, §2, §3, §4

Assay [9] has as its target T9, proteins displaced from immobilized biotin-Cmpd 1 pulldowns (U2OS cell lysate) (Homo sapiens, UniProt Q9Y5B9).
T9 construct: endogenous in cells; host or cells: U2OS
The note with it: GN=SUPT16H (Q9Y5B9). As for the experimental part: as §1, §2, §3, §4

Assay [10] has as its target T10, proteins displaced from immobilized biotin-Cmpd 1 pulldowns (U2OS cell lysate) (Homo sapiens, UniProt Q13867).
T10 construct: endogenous in cells; host or cells: U2OS
The settings on record: GN=BLMH (Q13867). As for the experimental part:
as §1, §2, §3, §4

T10 sequence (Q13867 whole entry): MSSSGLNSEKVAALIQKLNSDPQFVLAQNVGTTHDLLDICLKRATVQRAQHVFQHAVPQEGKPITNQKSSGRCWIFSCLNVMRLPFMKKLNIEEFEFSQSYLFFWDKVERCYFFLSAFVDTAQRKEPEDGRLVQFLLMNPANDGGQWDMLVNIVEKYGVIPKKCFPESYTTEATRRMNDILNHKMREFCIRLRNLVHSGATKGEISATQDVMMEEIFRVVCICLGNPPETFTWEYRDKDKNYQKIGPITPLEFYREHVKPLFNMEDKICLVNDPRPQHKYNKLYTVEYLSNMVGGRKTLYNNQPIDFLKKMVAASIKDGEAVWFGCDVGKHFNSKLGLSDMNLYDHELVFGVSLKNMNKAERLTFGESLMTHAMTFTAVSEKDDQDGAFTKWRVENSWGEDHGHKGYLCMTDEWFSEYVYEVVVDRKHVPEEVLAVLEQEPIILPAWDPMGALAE
T4 sequence (P05089 whole entry): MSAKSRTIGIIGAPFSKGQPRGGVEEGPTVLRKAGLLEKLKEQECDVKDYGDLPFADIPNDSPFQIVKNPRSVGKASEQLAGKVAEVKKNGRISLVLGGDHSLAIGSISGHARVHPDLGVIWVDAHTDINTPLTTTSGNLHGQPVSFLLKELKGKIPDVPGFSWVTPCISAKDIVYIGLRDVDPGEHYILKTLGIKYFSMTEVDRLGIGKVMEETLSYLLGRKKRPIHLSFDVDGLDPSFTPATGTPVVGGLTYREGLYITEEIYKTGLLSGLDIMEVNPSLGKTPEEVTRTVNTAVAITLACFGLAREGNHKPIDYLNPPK
T8 sequence (P20042 whole entry): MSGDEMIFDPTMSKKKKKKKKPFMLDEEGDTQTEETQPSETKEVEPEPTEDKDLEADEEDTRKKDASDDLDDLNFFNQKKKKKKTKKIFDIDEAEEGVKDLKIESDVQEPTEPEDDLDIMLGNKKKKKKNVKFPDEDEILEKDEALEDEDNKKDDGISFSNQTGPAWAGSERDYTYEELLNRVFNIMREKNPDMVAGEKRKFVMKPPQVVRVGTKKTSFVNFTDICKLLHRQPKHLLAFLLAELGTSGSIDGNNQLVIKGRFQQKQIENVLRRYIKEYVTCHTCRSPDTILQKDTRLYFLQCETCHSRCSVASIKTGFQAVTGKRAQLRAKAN
T2 sequence (P22735 whole entry): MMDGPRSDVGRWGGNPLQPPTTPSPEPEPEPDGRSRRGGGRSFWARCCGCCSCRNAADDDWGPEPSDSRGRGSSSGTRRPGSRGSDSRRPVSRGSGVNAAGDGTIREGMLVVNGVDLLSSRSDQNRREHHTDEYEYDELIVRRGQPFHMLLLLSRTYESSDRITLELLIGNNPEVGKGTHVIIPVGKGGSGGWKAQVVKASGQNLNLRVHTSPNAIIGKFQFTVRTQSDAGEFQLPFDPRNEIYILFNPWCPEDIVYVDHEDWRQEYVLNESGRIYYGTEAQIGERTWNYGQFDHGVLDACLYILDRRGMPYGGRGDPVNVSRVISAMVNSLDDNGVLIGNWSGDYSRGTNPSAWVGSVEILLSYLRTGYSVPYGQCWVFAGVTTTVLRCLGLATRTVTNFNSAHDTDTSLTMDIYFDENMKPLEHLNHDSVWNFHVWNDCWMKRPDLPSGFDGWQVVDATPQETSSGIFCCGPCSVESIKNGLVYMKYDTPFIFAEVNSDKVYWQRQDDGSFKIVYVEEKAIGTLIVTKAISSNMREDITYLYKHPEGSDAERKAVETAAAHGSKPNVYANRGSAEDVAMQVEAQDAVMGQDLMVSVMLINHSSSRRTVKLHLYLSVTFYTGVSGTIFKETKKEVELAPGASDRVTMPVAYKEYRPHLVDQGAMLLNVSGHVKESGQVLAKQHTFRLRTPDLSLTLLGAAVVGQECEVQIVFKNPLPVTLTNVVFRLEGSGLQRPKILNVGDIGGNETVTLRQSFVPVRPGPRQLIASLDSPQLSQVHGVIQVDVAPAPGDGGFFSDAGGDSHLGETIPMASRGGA
T3 sequence (P06396 28-782): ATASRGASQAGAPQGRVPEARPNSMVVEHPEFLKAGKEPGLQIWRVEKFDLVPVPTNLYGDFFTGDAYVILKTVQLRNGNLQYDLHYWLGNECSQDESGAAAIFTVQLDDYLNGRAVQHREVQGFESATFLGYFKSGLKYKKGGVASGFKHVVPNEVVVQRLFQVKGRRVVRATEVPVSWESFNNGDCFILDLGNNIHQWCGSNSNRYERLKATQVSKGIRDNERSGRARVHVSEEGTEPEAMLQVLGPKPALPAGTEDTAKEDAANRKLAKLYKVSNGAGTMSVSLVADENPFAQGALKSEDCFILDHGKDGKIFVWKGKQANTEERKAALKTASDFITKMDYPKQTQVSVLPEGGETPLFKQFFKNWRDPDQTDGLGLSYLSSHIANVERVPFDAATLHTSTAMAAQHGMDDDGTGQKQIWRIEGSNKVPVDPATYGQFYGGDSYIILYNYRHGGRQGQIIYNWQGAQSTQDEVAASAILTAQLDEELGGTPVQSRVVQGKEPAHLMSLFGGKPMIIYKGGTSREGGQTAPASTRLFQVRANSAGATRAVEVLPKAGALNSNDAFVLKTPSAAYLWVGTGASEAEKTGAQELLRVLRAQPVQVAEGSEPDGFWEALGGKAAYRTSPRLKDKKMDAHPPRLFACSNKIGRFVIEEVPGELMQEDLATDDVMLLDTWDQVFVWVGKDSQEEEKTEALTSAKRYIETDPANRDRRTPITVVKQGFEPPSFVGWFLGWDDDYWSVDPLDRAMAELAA
T5 sequence (P20700 whole entry): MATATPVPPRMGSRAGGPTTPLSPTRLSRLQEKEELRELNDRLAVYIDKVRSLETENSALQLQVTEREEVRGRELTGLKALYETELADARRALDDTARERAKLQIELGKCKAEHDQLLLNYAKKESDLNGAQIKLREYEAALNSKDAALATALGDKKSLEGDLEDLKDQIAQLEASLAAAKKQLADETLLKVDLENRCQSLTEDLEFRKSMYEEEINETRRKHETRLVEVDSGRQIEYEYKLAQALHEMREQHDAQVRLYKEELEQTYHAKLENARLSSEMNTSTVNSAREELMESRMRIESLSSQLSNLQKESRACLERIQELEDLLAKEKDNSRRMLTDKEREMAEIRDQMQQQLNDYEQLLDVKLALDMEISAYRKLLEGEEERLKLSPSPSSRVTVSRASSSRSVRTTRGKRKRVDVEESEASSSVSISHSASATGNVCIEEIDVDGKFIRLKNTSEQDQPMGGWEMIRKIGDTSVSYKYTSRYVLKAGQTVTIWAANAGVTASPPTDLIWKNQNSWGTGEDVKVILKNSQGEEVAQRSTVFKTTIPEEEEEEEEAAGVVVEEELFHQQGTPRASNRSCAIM
T1 sequence (O60832 whole entry): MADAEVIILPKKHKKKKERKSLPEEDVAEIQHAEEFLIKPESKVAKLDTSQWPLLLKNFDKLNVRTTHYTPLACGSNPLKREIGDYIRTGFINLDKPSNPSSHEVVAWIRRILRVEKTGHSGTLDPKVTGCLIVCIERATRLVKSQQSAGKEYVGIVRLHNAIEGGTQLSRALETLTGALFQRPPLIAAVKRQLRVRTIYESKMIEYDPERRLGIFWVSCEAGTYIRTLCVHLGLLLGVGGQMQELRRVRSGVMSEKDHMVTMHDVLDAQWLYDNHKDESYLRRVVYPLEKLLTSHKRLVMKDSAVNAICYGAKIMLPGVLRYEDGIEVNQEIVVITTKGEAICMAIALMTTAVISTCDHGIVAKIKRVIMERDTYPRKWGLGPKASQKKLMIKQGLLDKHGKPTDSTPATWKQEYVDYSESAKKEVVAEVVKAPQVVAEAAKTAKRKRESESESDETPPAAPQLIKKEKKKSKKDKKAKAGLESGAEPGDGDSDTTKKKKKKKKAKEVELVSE
T6 sequence (Q6UB35 32-978): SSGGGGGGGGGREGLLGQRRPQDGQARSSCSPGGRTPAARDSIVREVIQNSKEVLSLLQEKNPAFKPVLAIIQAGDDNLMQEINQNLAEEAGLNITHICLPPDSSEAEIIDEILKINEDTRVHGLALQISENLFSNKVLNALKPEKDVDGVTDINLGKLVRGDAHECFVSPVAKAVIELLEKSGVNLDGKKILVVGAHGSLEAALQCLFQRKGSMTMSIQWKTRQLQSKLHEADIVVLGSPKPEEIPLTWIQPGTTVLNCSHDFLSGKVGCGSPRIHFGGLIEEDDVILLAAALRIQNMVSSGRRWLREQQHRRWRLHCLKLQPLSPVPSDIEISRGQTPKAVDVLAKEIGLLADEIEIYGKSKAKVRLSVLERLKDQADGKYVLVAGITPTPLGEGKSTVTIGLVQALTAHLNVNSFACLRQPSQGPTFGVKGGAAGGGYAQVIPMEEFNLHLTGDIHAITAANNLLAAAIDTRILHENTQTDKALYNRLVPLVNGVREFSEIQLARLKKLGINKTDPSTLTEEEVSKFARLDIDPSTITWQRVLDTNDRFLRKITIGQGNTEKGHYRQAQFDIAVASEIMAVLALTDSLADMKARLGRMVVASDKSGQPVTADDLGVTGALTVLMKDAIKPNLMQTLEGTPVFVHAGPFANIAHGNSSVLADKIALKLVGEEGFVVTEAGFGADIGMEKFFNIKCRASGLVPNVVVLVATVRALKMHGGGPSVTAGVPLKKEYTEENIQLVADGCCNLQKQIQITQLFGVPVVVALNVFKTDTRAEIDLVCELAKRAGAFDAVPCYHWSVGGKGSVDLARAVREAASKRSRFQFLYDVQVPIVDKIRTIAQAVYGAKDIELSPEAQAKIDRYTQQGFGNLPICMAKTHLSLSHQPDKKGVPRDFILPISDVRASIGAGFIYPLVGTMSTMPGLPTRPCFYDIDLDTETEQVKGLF

Regarding `Cn1c2c(c(=N)c3c1CCC3)CCC2` [Compound 1, 4-methyl-2,3,4,5,6,7-hexahydrodicyclopenta[b,e]pyridin-8(1H)-imine], the Difference was 0.5453 in [1] (Cmpd minus DMSO, -LOG(P-value) 0.760368); -2.41 in assay [2] (Cmpd minus DMSO, -LOG(P-value) 1.15166); -1.503 in [3] (Cmpd minus DMSO, -LOG(P-value) 0.71197); -1.277 in assay [4] (Cmpd minus DMSO, -LOG(P-value) 0.796604); 0.6571 in assay [5] (Cmpd minus DMSO, -LOG(P-value) 0.765149); 0.8728 in assay [6] (Cmpd minus DMSO, -LOG(P-value) 1.33022). The Difference in assay [7] (Cmpd minus DMSO, -LOG(P-value) 0.711634) is given as 0.8419; in assay [8] (Cmpd minus DMSO, -LOG(P-value) 0.750637), -2.049; in [9] (Cmpd minus DMSO, -LOG(P-value) 1.35125) it was 1.168; in assay [10] (Cmpd minus DMSO, -LOG(P-value) 0.904295) it was -3.65. The “iBAQ Cmpd” value is 19.0033 and 19.8581 and 19.0089 in [1] (replicates 1-3); 15.9988 and 17.3288 and 14.7232 in assay [2] (replicates 1-3); 18.7093 and 18.978 and 19.6978 in [3] (replicates 1-3); 21.3858 and 21.3863 and 20.4096 in assay [4] (replicates 1-3); 20.5307 and 20.0559 and 19.5746 in assay [5] (replicates 1-3); 15.8133 and 15.8201 and 15.0604 in [6] (replicates 1-3). Moreover, the “iBAQ Cmpd” value in [7] (replicates 1-3) is 20.3934 and 20.6157 and 19.9486; in assay [8] (replicates 1-3), 14.3581 and 16.9929 and 16.8192; in assay [9] (replicates 1-3) it was 20.1986 and 19.3251 and 19.6735; in assay [10] (replicates 1-3), 19.0378 and 19.0387 and 13.7316.
